Source: patent US20260015350A1, “AZAQUINAZOLINE PAN-KRAS INHIBITORS” (Mirati Therapeutics, Inc., priority 2022, published 2026)

Assays:
KRas^G12D = biological target: T1, KRas^G12D (Homo sapiens, UniProt P01116, G12D); test: KRas binding assay (TR-FRET tracer displacement), KRas G12D
T1 construct: Biotinylated KRas (corresponding to amino acids 1-169, produced at Accelegan Inc.); biotin (biotinylated); purchased Accelegan Inc

KRas^G12R = biological target: T2, KRas^G12R (Homo sapiens, UniProt P01116, G12R); test: KRas binding assay (TR-FRET tracer displacement), KRas G12R
T2 construct: Biotinylated KRas (corresponding to amino acids 1-169, produced at Accelegan Inc.); biotin (biotinylated); purchased Accelegan Inc
T2 sequence (P01116 1-169 isoform P01116-2 G12R): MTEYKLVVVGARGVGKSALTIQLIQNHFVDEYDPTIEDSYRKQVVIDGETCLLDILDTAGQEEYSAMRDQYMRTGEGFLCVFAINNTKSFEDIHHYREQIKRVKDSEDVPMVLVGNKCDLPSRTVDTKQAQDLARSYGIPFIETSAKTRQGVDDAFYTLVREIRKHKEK

KRas^G12V = biological target: T3, KRas^G12V (Homo sapiens, UniProt P01116, G12V); test: KRas binding assay (TR-FRET tracer displacement), KRas G12V
T3 construct: Biotinylated KRas (corresponding to amino acids 1-169, produced at Accelegan Inc.); biotin (biotinylated); purchased Accelegan Inc
T3 sequence (P01116 1-169 isoform P01116-2 G12V): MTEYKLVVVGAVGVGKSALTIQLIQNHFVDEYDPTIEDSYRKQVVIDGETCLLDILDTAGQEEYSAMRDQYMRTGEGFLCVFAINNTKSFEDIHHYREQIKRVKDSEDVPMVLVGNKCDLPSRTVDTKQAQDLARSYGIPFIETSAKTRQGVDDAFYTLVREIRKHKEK

[1] = test system: KRas-mediated phosphorylation of ERK in MKN1 cells; test: Inhibition of KRas-mediated phosphorylation of ERK (Cisbio HTRF pERK), MKN1 cells; assay type: cell-based; conditions: Homo sapiens, MKN-1
Outline: (§1)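 Overnight culture at 37° C./5% CO2 in RPMI containing 10% FBS, seeded 6,000 cells per well, preceded the assay. A covered 4-hour incubation at room temperature followed, then HTRF signal for phosphorylated ERK was measured.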

[2] = test system: KRas-mediated phosphorylation of ERK in PSN1 cells; test: Inhibition of KRas-mediated phosphorylation of ERK (Cisbio HTRF pERK), PSN1 cells; assay type: cell-based; conditions: Homo sapiens
Outline: as §1

[3] = test system: KRas-mediated phosphorylation of ERK in AsPC-1 cells; test: Inhibition of KRas-mediated phosphorylation of ERK (Cisbio HTRF pERK), AsPC-1 cells; assay type: cell-based; conditions: Homo sapiens, ASPC1, AsPC-1 cells; HTRF pERK
Outline: (§2)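 HTRF readout of phospho-ERK in cell lysates after 3 hrs of compound exposure. Dosing: 10 uM top, 3-fold steps, 10 doses, final DMSO 0.8%. Min control: 0.2 uM Trametinib. Lysis ran 40 mins at 4° C, and antibody detection 2 hrs at room temperature.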

[4] = test system: KRas-mediated phosphorylation of ERK in H727 cells; test: Inhibition of KRas-mediated phosphorylation of ERK (Cisbio HTRF pERK), H727 cells; assay type: cell-based; conditions: Homo sapiens, NCI-H727, H727 cells; HTRF pERK
Outline: as §2

[5] = test system: KRas-mediated phosphorylation of ERK in A549 cells; test: Inhibition of KRas-mediated phosphorylation of ERK (Cisbio HTRF pERK), A549 cells; assay type: cell-based; conditions: Homo sapiens, HTRF pERK
Outline: as §2

[6] = test system: KRas-mediated phosphorylation of ERK in H460 cells; test: Inhibition of KRas-mediated phosphorylation of ERK (Cisbio HTRF pERK), H460 cells; assay type: cell-based; conditions: Homo sapiens, NCI-H460, HTRF pERK
Outline: as §2

[7] = test system: KRas-mediated phosphorylation of ERK in HCT116 cells; test: Inhibition of KRas-mediated phosphorylation of ERK (Cisbio HTRF pERK), HCT116 cells; assay type: cell-based; conditions: Homo sapiens, HCT-116, HTRF pERK
Outline: as §2

[8] = test system: KRas-mediated phosphorylation of ERK in H358 cells; test: Inhibition of KRas-mediated phosphorylation of ERK (Cisbio HTRF pERK), H358 cells; assay type: cell-based; conditions: Homo sapiens, NCI-H358, HTRF pERK
Outline: as §2

T1 sequence (P01116 1-169 isoform P01116-2 G12D): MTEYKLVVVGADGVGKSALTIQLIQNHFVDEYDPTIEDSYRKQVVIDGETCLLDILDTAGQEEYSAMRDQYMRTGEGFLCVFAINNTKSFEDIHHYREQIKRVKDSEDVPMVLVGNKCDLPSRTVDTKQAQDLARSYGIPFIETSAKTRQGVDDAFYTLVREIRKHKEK

Row | IC50 (KRas^G12D) | IC50 (KRas^G12R) | IC50 (KRas^G12V) | IC50 [1] | IC50 [2] | IC50 [3] | IC50 [4] | IC50 [5] | IC50 [6] | IC50 [7] | IC50 [8] | Compound
1 | 2 nM | 2 nM | < 2 nM | 2 nM | 744 nM | 4 nM | 32 nM | 9 nM | 4 nM | 13 nM | 8 nM | CCc1c(F)ccc2cc(O)cc(-c3ncc4c(N5CCC[C@@](C)(O)C5)nc(OCC56CCCN5CC(=C(F)F)C6)nc4c3F)c12 (stereo partly drawn) [Example 792, (3R)-1-(2-((2-(difluoromethylene)tetrahydro-1H-pyrrolizin-7a(5H)-yl)methoxy)-7-(8-ethyl-7-fluoro-3-hydroxynaphthalen-1-yl)-8-fluoropyrido[4,3-d]pyrimidin-4-yl)-3-methylpiperidin-3-ol]
2 | < 2 nM | 3 nM | < 2 nM | 1 nM | 812 nM | 13 nM | 29 nM | 23 nM | 10 nM | 24 nM | 8 nM | C[C@@H]1C[C@@H]1c1c(Cl)cc(O)cc1-c1ncc2c(N3CCC[C@@](C)(O)C3)nc(OC[C@@]34CCCN3C[C@H](F)C4)nc2c1F [Example 805, (R)-1-(7-(3-chloro-5-hydroxy-2-((1S,2R)-2-methylcyclopropyl)phenyl)-8-fluoro-2-(((2R,7aS)-2-fluorotetrahydro-1H-pyrrolizin-7a(5H)-yl)methoxy)pyrido[4,3-d]pyrimidin-4-yl)-3-methylpiperidin-3-ol]
3 | 12 nM | 6 nM | 4 nM | 68 nM | > 10000 nM | 743 nM | 363 nM | 922 nM | 166 nM | 324 nM | 177 nM | CCc1c(F)ccc2cc(O)cc(-c3ncc4c(N5CC6CCC(CO)(C6)C5)nc(OC[C@@]56CCCN5C[C@H](F)C6)nc4c3F)c12 (stereo partly drawn) [Example 812, 5-ethyl-6-fluoro-4-(8-fluoro-2-(((2R,7aS)-2-fluorotetrahydro-1H-pyrrolizin-7a(5H)-yl)methoxy)-4-(1-(hydroxymethyl)-3-azabicyclo[3.2.1]octan-3-yl)pyrido[4,3-d]pyrimidin-7-yl)naphthalen-2-ol]
4 | 3 nM | 8 nM | 3 nM | 61 nM | > 10000 nM | 135 nM | 347 nM | 212 nM | 167 nM | 345 nM | 121 nM | CCc1c(F)ccc2cc(O)cc(-c3ncc4c(N5CCC[C@@](C)(O)C5)nc(OCC5(CN(C)C)C(C)C5C)nc4c3F)c12 (stereo partly drawn) [Example 818, (3R)-1-(2-((1-((dimethylamino)methyl)-2,3-dimethylcyclopropyl)methoxy)-7-(8-ethyl-7-fluoro-3-hydroxynaphthalen-1-yl)-8-fluoropyrido[4,3-d]pyrimidin-4-yl)-3-methylpiperidin-3-ol]
5 | 11 nM | 8 nM | 4 nM | 167 nM | > 10000 nM | 165 nM | 174 nM | 143 nM | 136 nM | 502 nM | 69 nM | CCc1c(F)ccc2cc(O)cc(-c3ncc4c(N5CC6CCC(C(=O)N(C)C)(C6)C5)nc(OC[C@@]56CCCN5C[C@H](F)C6)nc4c3F)c12 (stereo partly drawn) [Example 824, 3-(7-(8-ethyl-7-fluoro-3-hydroxynaphthalen-1-yl)-8-fluoro-2-(((2R,7aS)-2-fluorotetrahydro-1H-pyrrolizin-7a(5H)-yl)methoxy)pyrido[4,3-d]pyrimidin-4-yl)-N,N-dimethyl-3-azabicyclo[3.2.1]octane-1-carboxamide]
6 | 6 nM | 3 nM | < 2 nM | 36 nM | 5920 nM | 180 nM | 56 nM | 83 nM | 98 nM | 369 nM | 50 nM | CCc1c(F)ccc2cc3[nH]ncc3c(-c3ncc4c(N5C[C@@H]6C[C@H](C5)[C@H](O)C6)nc(OC[C@@]56CCCN5C[C@H](F)C6)nc4c3F)c12 [Example 825, (1R,5R,6R)-3-(7-(5-ethyl-6-fluoro-1H-benzo[f]indazol-4-yl)-8-fluoro-2-(((2R,7aS)-2-fluorotetrahydro-1H-pyrrolizin-7a(5H)-yl)methoxy)pyrido[4,3-d]pyrimidin-4-yl)-3-azabicyclo[3.2.1]octan-6-ol]
7 | < 2 nM | < 2 nM | < 2 nM | 7 nM | 2390 nM | 12 nM | 51 nM | 44 nM | 30 nM | 74 nM | 9 nM | CCc1c(F)ccc2cc(O)cc(-c3ncc4c(N5CCC[C@@](C)(O)C5)nc(OC[C@@]56CCCN5[C@H](COC)CC6)nc4c3F)c12 [Example 826, (R)-1-(7-(8-ethyl-7-fluoro-3-hydroxynaphthalen-1-yl)-8-fluoro-2-(((3S,7aS)-3-(methoxymethyl)tetrahydro-1H-pyrrolizin-7a(5H)-yl)methoxy)pyrido[4,3-d]pyrimidin-4-yl)-3-methylpiperidin-3-ol]
8 | < 2 nM | 3 nM | < 2 nM | 41 nM | > 10000 nM | 67 nM | 242 nM | 159 nM | 92 nM | 180 nM | 68 nM | CCc1c(F)ccc2cc(O)cc(-c3ncc4c(N5CCC[C@@](C)(O)C5)nc(OCC56CC5CN(C)C6)nc4c3F)c12 (stereo partly drawn) [Example 827, (3R)-1-(7-(8-ethyl-7-fluoro-3-hydroxynaphthalen-1-yl)-8-fluoro-2-((3-methyl-3-azabicyclo[3.1.0]hexan-1-yl)methoxy)pyrido[4,3-d]pyrimidin-4-yl)-3-methylpiperidin-3-ol]
9 | 8 nM | 5 nM | 3 nM | 87 nM | > 10000 nM | 3450 nM | 1140 nM | 2750 nM | 797 nM | 1200 nM | 186 nM | CCc1c(F)ccc2cc(O)cc(-c3ncc4c(N5CC6CCC(C(N)=O)(C6)C5)nc(OC[C@@]56CCCN5C[C@H](F)C6)nc4c3F)c12 (stereo partly drawn) [Example 834, 3-(7-(8-ethyl-7-fluoro-3-hydroxynaphthalen-1-yl)-8-fluoro-2-(((2R,7aS)-2-fluorotetrahydro-1H-pyrrolizin-7a(5H)-yl)methoxy)pyrido[4,3-d]pyrimidin-4-yl)-3-azabicyclo[3.2.1]octane-1-carboxamide]
10 | 3 nM | < 2 nM | < 2 nM | 20 nM | 1620 nM | 146 nM | 72 nM | 192 nM | 72 nM | 137 nM | 31 nM | C#Cc1c(F)ccc2cc(O)cc(-c3ncc4c(N5CCCC6(CC(O)C6)C5)nc(OC[C@]56CCCN5[C@H](COC(=O)N(C)C)CC6)nc4c3F)c12 (stereo partly drawn) [Example 835, ((3S,7aR)-7a-(((7-(8-ethynyl-7-fluoro-3-hydroxynaphthalen-1-yl)-8-fluoro-4-(2-hydroxy-6-azaspiro[3.5]nonan-6-yl)pyrido[4,3-d]pyrimidin-2-yl)oxy)methyl)hexahydro-1H-pyrrolizin-3-yl)methyl dimethylcarbamate]
